Measured values taken from patent publication US11452303B2, “Methods for feeding sows and for improving the health of young piglets” (PURINA ANIMAL NUTRITION LLC, priority 2003, dated 2022).
Where “and” joins values, the source holds several entries; their conditions need not be identical. Identical values can stand only once. Marks after values point to notes of the source that are not given here.

How the values were obtained:
nursing piglets = assay: Litter performance: number of nursing piglets and piglet mortality in litters of lactating sows fed sorbitol; format: in vivo, swine
Protocol: (§1) In this example, sixty-two (62) lactating sows were subjected to one of three different feeding trials that each began shortly (within 48 hours) after the lactating sows gave birth to piglets (i.e.: shortly after farrowing) and extended to the day the different piglets were wearied from the respective sows. The purpose of this example was to evaluate the effect of feeding lactating sows varying amounts of sugar alcohol, or no sugar alcohol, on subsequent piglet litter performance parameters, such as mortality prior to weaning and litter weight gain during the pre-weaning period. Sorbitol was used as the sugar alcohol in this example.
Immediately after farrowing, twenty sows were randomly assigned to the Control, twenty-one sows were randomly assigned to Trial A, and twenty-one sows were randomly assigned to Trial B. Sow assignment did take into account parity (number of litters per sow) to artificially balance parity across the Control, Trial A, and Trial B. The different sows of the Control, Trial A, and Trial B had parities ranging from one to more than two. Additionally, litter size was equalized between the different sows of the Control, Trial A, and Trial B within forty-eight hours after farrowing to assure that all sows, whether assigned to the Control, Trial A or Trial B, had the same, or about the same, number of nursing piglets. The reason for waiting forty-eight hours before cross-fostering in this fashion was to assure each piglet received colostrum from their original dam.
(§2) In Trial A, each of the lactating sows received the control feed plus about twenty-six grams of sorbitol per day. In Trial B, each of the lactating sows received the control feed plus about fifty-two grams of sorbitol per day.
The lactating sows of both Trial A and Trial B received the same daily amount of control feed that was fed to the lactating sows of the Control with the exception that two pounds of the control feed provided daily to the lactating sows of both Trial A and Trial B were replaced with two pounds of a sorbitol-coated control feed (hereinafter referred to as “top-dressed control feed”). To create the top-dressed control feed, liquid sorbitol was heated to a temperature ranging from about 100° F. and about 120° F. The heated liquid sorbitol was then sprayed over a batch of about three hundred to four hundred pounds of the control feed and thoroughly mixed to form the top-dressed control feed. Following mixing, the top-dressed control feed was divided and separately bagged in two pound increments. An appropriate ratio of the liquid sorbitol to the control feed was selected for the top-dressed control feed destined for the Trial A lactating sows to assure that each two pound allotment of the control feed destined for the Trial A lactating sows included about twenty-six grams of sorbitol. Likewise, an appropriate ratio of the liquid sorbitol to the control feed was selected for the top-dressed control feed destined for the Trial B lactating sows to assure that each two pound allotment of the top-dressed control feed destined for the Trial B lactating sows included about fifty-two grams of sorbitol.
During the feeding trial of this example, the top dressed control feed was applied three times daily to the balance of the control feed being provided individually at that feeding to the individual lactating sows of Trial A and Trial B. Approximately one-third of the top-dressed control feed was provided to the sows in the morning feeding, approximately one-third of the top dressed control feed was provided to the lactating sows in the noon feeding, and the remaining approximate one-third of the top-dressed control feed was provided to the sows in the afternoon feeding. The twenty-one sows of Trial A each received a total of about two pounds of the top-dressed control feed containing about 26 grams of sorbitol per day. […]

[1] = Litter performance: total litter live weight and mean individual piglet weight; format: in vivo, swine
Protocol: In each of the Examples provided below, each piglet was weighed two days after birth, fourteen days after birth, and again at weaning. All data that is provided in Tables 4-9 below for the lactating sows is based upon individual data for each lactating sow, then-present, as least square means of the particular data over all lactating sows present in the test at the time the particular data was recorded. All data that is provided in Tables 4-9 below for the piglets is based upon data for each litter of piglets, then-present, as least square means of the particular data over all piglets of the litter present in the test at the time the particular data was recorded. Data for parameters presented in Tables 4-9 was analyzed using the general linear model (GLM) statistical procedure of SAS™ statistical analysis software for a randomized complete block design that included both the particular Iced regimen and the week of the test period in the model statement. The SAS™ statistical analysis software is available from SAS Institute, Inc. of Cary, N.C. Additionally, all data was analyzed to determine the mean of the data for each variable under consideration during the collection period for the particular data.
as §1, §2
Additionally, the collective body weights of the piglets assigned to each lactating sow of the three different trials were measured and recorded on day two post-farrowing (about forty-eight hours after farrowing), on day fourteen post-farrowing (fourteen days after farrowing), and on the day the piglets were weaned. The mean body weight values for each individual piglet of the three different trials were derived for each piglet individually from the weight data recorded for each piglet litter by dividing the collective litter weight determined for a particular litter by the total number of piglets then-present in the litter to attain the mean individual piglet weights on day two post-farrowing (about forty-eight hours after farrowing), on day fourteen post-farrowing (fourteen days after farrowing), and on the day the piglets were weaned.
In this example, the data from Example 1 was analyzed to remove data attributable to sows with a parity of only one. Parity refers to the number of litters a sow has previously given birth to during its life. Gilts or first-parity sows typically consume approximately fifteen to twenty percent less feed during lactation and also typically produce less milk than sows with parities greater than one. The litters of parity one sows also tend to have lower weaning weights and more health problems than the litters of sows with parities greater than one. The purpose of looking at the Example 1 data, as re-analyzed to remove the effect of parity one data, is to determine the influence of natural differences in feed intake and litter performance of parity one sows on the data presented in Example 1 above. Removing the data contributed by the […] parity one sows in Example 1, left the Control with fourteen sows of parity two or higher, left Trial A with sixteen sows of parity two or higher, and left Trial B with sixteen sows of parity two or higher. […]

[2] = Trial A, 26 grams sorbitol per day, Parity ≥ 1, At Weaning
[3] = Trial A, 26 grams sorbitol per day, Parity ≥ 1, Day 14
[4] = Trial A, 26 grams sorbitol per day, Parity ≥ 1, day one post-farrowing to weaning
[5] = Trial A, 26 grams sorbitol per day, Parity ≥ 1, day one to day fourteen post-farrowing
[6] = Trial A, 26 grams sorbitol per day, Parity ≥2, At Weaning
[7] = Trial A, 26 grams sorbitol per day, Parity ≥2, Day 2
[8] = Trial A, 26 grams sorbitol per day, Parity ≥2, Day 14
[9] = Trial A, 26 grams sorbitol per day, Parity ≥ 2, day one post-farrowing to weaning
[10] = Trial A, 26 grams sorbitol per day, Parity ≥ 2, day one to day fourteen post-farrowing
[11] = Trial B, 52 grams sorbitol per day, Parity ≥ 1, At Weaning
[12] = Trial B, 52 grams sorbitol per day, Parity ≥ 1, Day 14
[13] = Trial B, 52 grams sorbitol per day, Parity ≥ 1, day fourteen post-farrowing to weaning
[14] = Trial B, 52 grams sorbitol per day, Parity ≥ 1, day one post-farrowing to weaning
[15] = Trial B, 52 grams sorbitol per day, Parity ≥ 1, day one to day fourteen post-farrowing
[16] = Trial B, 52 grams sorbitol per day, Parity ≥2, At Weaning
[17] = Trial B, 52 grams sorbitol per day, Parity ≥2, Day 2
[18] = Trial B, 52 grams sorbitol per day, Parity ≥2, Day 14
[19] = Trial B, 52 grams sorbitol per day, Parity ≥ 2, day one post-farrowing to weaning
[20] = Trial B, 52 grams sorbitol per day, Parity ≥ 2, day one to day fourteen post-farrowing
[21] = Trial A, 26 grams sorbitol per day, Parity ≥ 1, Day 2
[22] = Trial B, 52 grams sorbitol per day, Parity ≥ 1, Day 2

Structure (SMILES): OC[C@@H](O)[C@@H](O)[C@H](O)[C@@H](O)CO [sorbitol]
- Number of Nursing Piglets (nursing piglets; Trial A, 26 grams sorbitol per day to sows, Parity ≥ 1, Day 2): 10.57
- Number of Nursing Piglets (nursing piglets; [2]): 9.95
- Percentage Piglet Mortality (nursing piglets; Trial A, 26 grams sorbitol per day, Parity ≥ 1, Day 1 to Day 14): 3.99% and 3.99^c percent
- Percentage Piglet Mortality (nursing piglets; Trial A, 26 grams sorbitol per day, Parity ≥ 1, Day 1 to Weaning): 5.69% and 5.69^c percent
- Number of Nursing Piglets (nursing piglets; [3]): 10.14
- Percentage Piglet Mortality (nursing piglets; Trial A, 26 grams sorbitol per day, Parity ≥ 1, Day 14 to weaning): 1.74^d percent
- piglet mortality drop versus Control (nursing piglets; [4]): 47.07%
- piglet mortality percentage drop versus Control (nursing piglets; [4]): 5.06 percentage points
- piglet mortality drop versus Control (nursing piglets; [5]): 54.97%
- piglet mortality percentage drop versus Control (nursing piglets; [5]): 4.87 percentage points
- Number of Nursing Piglets (nursing piglets; [6]): 10.01
- Percentage Piglet Mortality (nursing piglets; Trial A, 26 grams sorbitol per day, Parity ≥2, Day 1 to Day 14): 3.52% and 3.52^c percent
- Percentage Piglet Mortality (nursing piglets; Trial A, 26 grams sorbitol per day, Parity ≥2, Day 1 to Weaning): 4.69% and 4.69^c percent
- Number of Nursing Piglets (nursing piglets; [7]): 10.51
- Number of Nursing Piglets (nursing piglets; [8]): 10.14
- Percentage Piglet Mortality (nursing piglets; Trial A, 26 grams sorbitol per day, Parity ≥2, Day 14 to weaning): 1.23%
- piglet mortality drop versus Control (nursing piglets; [9]): 63.27%
- piglet mortality percentage drop versus Control (nursing piglets; [9]): 8.08 percentage points
- piglet mortality drop versus Control (nursing piglets; [10]): 67.20%
- piglet mortality percentage drop versus Control (nursing piglets; [10]): 7.21 percentage points
- Number of Nursing Piglets (nursing piglets; Trial B, 52 grams sorbitol per day to sows, Parity ≥ 1, Day 2): 10.50
- Number of Nursing Piglets (nursing piglets; [11]): 10.03
- Percentage Piglet Mortality (nursing piglets; Trial B, 52 grams sorbitol per day, Parity ≥ 1, Day 1 to Day 14): 4.61% and 4.61^e percent
- Percentage Piglet Mortality (nursing piglets; Trial B, 52 grams sorbitol per day, Parity ≥ 1, Day 1 to Weaning): 4.60% and 4.60^c percent
- Number of Nursing Piglets (nursing piglets; [12]): 10.0
- Percentage Piglet Mortality (nursing piglets; Trial B, 52 grams sorbitol per day, Parity ≥ 1, Day 14 to weaning): 0.00% and 0.00^e percent
- piglet mortality drop versus Control (nursing piglets; [13]): 100%
- piglet mortality percentage drop versus Control (nursing piglets; [13]): 2.09 percentage points
- piglet mortality drop versus Control (nursing piglets; [14]): 57.21%
- piglet mortality percentage drop versus Control (nursing piglets; [14]): 6.15 percentage points
- piglet mortality drop versus Control (nursing piglets; [15]): 47.97%
- piglet mortality percentage drop versus Control (nursing piglets; [15]): 4.25 percentage points
- Number of Nursing Piglets (nursing piglets; [16]): 10.02
- Percentage Piglet Mortality (nursing piglets; Trial B, 52 grams sorbitol per day, Parity ≥2, Day 1 to Day 14): 5.68% and 5.68^c percent
- Percentage Piglet Mortality (nursing piglets; Trial B, 52 grams sorbitol per day, Parity ≥2, Day 1 to Weaning): 5.71% and 5.71^c percent
- Number of Nursing Piglets (nursing piglets; [17]): 10.62
- Number of Nursing Piglets (nursing piglets; [18]): 10.02
- Percentage Piglet Mortality (nursing piglets; Trial B, 52 grams sorbitol per day, Parity ≥2, Day 14 to weaning): 0.00%
- piglet mortality drop versus Control (nursing piglets; [19]): 55.29%
- piglet mortality percentage drop versus Control (nursing piglets; [19]): 7.06 percentage points
- piglet mortality drop versus Control (nursing piglets; [20]): 47.06%
- piglet mortality percentage drop versus Control (nursing piglets; [20]): 5.05 percentage points
- Mean Weight of Individual Piglets [1, 2]: 14.80 pounds
- Total Live Weight of Litter [1, 2]: 147.53^de pounds
- Mean Weight of Individual Piglets [1, 21]: 4.11 pounds
- Total Live Weight of Litter [1, 21]: 43.29 pounds
- Mean Weight of Individual Piglets [1, 3]: 10.59 pounds
- Total Live Weight of Litter [1, 3]: 107.85 pounds
- Mean Weight of Individual Piglets [1, 6]: 15.02 pounds
- Total Live Weight of Litter [1, 6]: 150.42^bc pounds
- Mean Weight of Individual Piglets [1, 7]: 4.14 pounds
- Total Live Weight of Litter [1, 7]: 43.37 pounds
- Mean Weight of Individual Piglets [1, 8]: 10.82 pounds
- Total Live Weight of Litter [1, 8]: 109.76 pounds
- Mean Weight of Individual Piglets [1, 11]: 15.55 pounds
- Total Live Weight of Litter [1, 11]: 154.81 pounds and 154.81^e pounds
- Mean Weight of Individual Piglets [1, 22]: 3.90 pounds
- Total Live Weight of Litter [1, 22]: 41.17 pounds
- Mean Weight of Individual Piglets [1, 12]: 10.39 pounds
- Total Live Weight of Litter [1, 12]: 104.39 pounds
- Mean Weight of Individual Piglets [1, 16]: 16.03 pounds
- Total Live Weight of Litter [1, 16]: 159.86 pounds and 159.86^c pounds
- Mean Weight of Individual Piglets [1, 17]: 4.18 pounds
- Total Live Weight of Litter [1, 17]: 44.48 pounds
- Mean Weight of Individual Piglets [1, 18]: 10.87 pounds
- Total Live Weight of Litter [1, 18]: 109.25 pounds
